The text below walks through data of US9056851B2, “Thiolactone antibiotics” (priority 2011, dated 2015).

Molecules are shown by their SMILES.

The target of this test is C171Q KasA acyl-enzyme mimic (Mycobacterium tuberculosis, UniProt P9WQD9, C171Q). Type of test: binding, M. tuberculosis.
Consider `C=C/C(C)=C/[C@@]1(C)SC(=O)C=C1O` [TLM2, 5R-(+)-3-Demethylthiolactomycin], for which the “Slow Onset” value is “No” and the “Slow or Rapid onset of binding to C171QKasA (words in Ki* column)” value (shortened to “Slow or Rapid onset of binding”) is “Rapid”.
Take `C=C/C(C)=C/[C@@]1(C)SC(=O)C(CC)=C1O` [TLM3, 5R-(+)-3-Ethylthiolactomycin]: the “Slow Onset” value is listed as “Yes” and the “Slow or Rapid onset of binding” value is “Slow,”.
With `C=C/C(C)=C/[C@@]1(C)SC(=O)C(CCC)=C1O` [TLM4, 5R-(+)-3-Propylthiolactomycin], the “Slow Onset” value is on record as “Yes” and the “Slow or Rapid onset of binding” value is on record as “Slow,”.
The matching figures for `C=C/C(C)=C/[C@@]1(C)SC(=O)C(CCc2ccc(C)cc2)=C1O` [TLM5]: “No” and “Rapid”.
The matching figures for `C=C/C(C)=C/[C@@]1(C)SC(=O)C(CCCCc2ccc(F)cc2)=C1O` [TLM6]: “No” and “Rapid”.
For `C=C/C(C)=C/[C@@]1(C)SC(=O)C(CCCCc2ccc(Cl)cc2)=C1O` [TLM7], the “Slow Onset” value is on record as “No” and the “Slow or Rapid onset of binding” value is recorded as “Rapid”.
`C=C/C(C)=C/[C@@]1(C)SC(=O)C(CCCCc2ccc(Br)cc2)=C1O` [TLM8]: the “Slow Onset” value is given as “No” and the “Slow or Rapid onset of binding” value was “Rapid”.
On the same counts, the results for `C=C/C(C)=C/[C@@]1(C)SC(=O)C(CCCCc2ccc(-c3ccccc3)cc2)=C1O` [TLM9] are “No” and “Rapid”.
As to `C=C/C(C)=C/[C@@]1(C)SC(=O)C(CCCN=[N+]=[N-])=C1O` [TLM10], the “Slow Onset” value is “Yes” and the “Slow or Rapid onset of binding” value is listed as “Slow Onset”.
As for `C=C/C(C)=C/[C@@]1(C)SC(=O)C(CCc2ccc(Cl)cc2)=C1O` [TLM31], the “Slow Onset” value is reported as “No”.
Still for that read-out and setting: as for `C=C/C(C)=C/[C@@]1(C)SC(=O)C(CCCCN=[N+]=[N-])=C1O` [TLM32], the entry is “Yes”; as for `C=C/C(C)=C/[C@@]1(C)SC(=O)C(CCCCn2cc(CNC(=O)[C@H](O)C(C)(C)CO)nn2)=C1O` [TLM33], “No”; as for `C=C/C(C)=C/[C@@]1(C)SC(=O)C(CCCCn2cc(CNC(=O)c3ccc(NS(=O)(=O)c4ccc(F)cc4)cc3)nn2)=C1O` [TLM34], “No”.
Regarding `C=C/C(C)=C/[C@@]1(C)SC(=O)C(C(C)=O)=C1O` [TLM35], the “Slow Onset” value is “Yes”.
As for `C=C/C(C)=C/[C@@]1(C)SC(=O)C(C(=O)C(F)(F)F)=C1O` [TLM36], the “Slow Onset” value is recorded as “Yes”.
Consider `C=C/C(C)=C/[C@@]1(C)SC(=O)C(C(=O)OC)=C1O` [TLM37], for which the “Slow Onset” value is recorded as “No”.
As to `C=C/C(C)=C/[C@@]1(C)SC(=O)C(C(=O)CCC)=C1O` [TLM38], the “Slow Onset” value is recorded as “No”.
Consider `C=C/C(C)=C/[C@@]1(C)SC(=O)C(C(=O)c2ccccc2C(=O)O)=C1O` [TLM39], for which the “Slow Onset” value is given as “No”.
Still for that read-out and setting: the value for `C=C/C(C)=C/[C@@]1(C)SC(=O)C=C1OCC(=O)NCCN=[N+]=[N-]` [TLM40] was “No”; that for `C=C/C(C)=C/[C@@]1(C)SC(=O)C(C(=O)CCCCCCCCCCCCCCC)=C1O` [TLM43] was “No”; that for `C=C/C(C)=C/[C@@]1(C)SC(=O)C(C(=O)CCCCc2ccc(-c3ccccc3)cc2)=C1O` [TLM45] was “No”.
`C=C/C(C)=C/[C@@]1(C)SC(=O)C(C)=C1O` [TLM, 5R-(+)-Thiolactomycin]: the “Slow Onset” value is given as “Yes” and the “Slow or Rapid onset of binding” value is recorded as “Slow,”.
